{"source": "patent US12049439B2", "about": "(OrsoBio, Inc., priority 2018, dated 2024)", "system": "PC-3 cells", "experiment": "PC-3 Oxygen Rate Consumption (OCR) Assay", "assay_type": "cell-based", "details": "medium with 2% FBS, OCR at 3-min post-injection normalized to % increase over DMSO-treated cells, concentration for half-maximal OCR increase, read-out: EC50-PC3-OCR-FBS-3min", "how_it_was_run": "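PC-3 cells seeded a day before, equilibrated 1 h in XF medium with 10 mM glucose, 1 mM pyruvate, 2% FBS, non-CO2 at 37 °C. Compound injected after basal OCR reads; OCR at 3 min post-injection normalized as % increase over DMSO, EC50 = half-maximal increase; six replicates.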", "note": "Where two headings read alike, the source gives them in different places.", "data": [{"smiles": "O=C(NC12CC(C(F)(F)F)(C1)C2)c1ccc(F)cc1NS(=O)(=O)C1CC1", "note": "[Example 2, 2-(cyclopropanesulfonamido)-4-fluoro-N-(3-(trifluoromethyl)bicyclo[1.1.1]pentan-1-yl)benzamide]", "values": [{"measurement": "EC50", "setting": "Homo sapiens, 0.05 h", "result": 3.65, "unit": "µM"}]}, {"smiles": "CS(=O)(=O)Nc1ccc(C(F)(F)F)cc1C(=O)NC12CCC(C(F)(F)F)(CC1)CC2", "note": "[Example 183, 2-(methylsulfonamido)-5-(trifluoromethyl)-N-(4-(trifluoromethyl)bicyclo[2.2.2]octan-1-yl)benzamide]", "values": [{"measurement": "EC50", "setting": "Homo sapiens, 0.05 h", "result": 0.824, "unit": "µM"}]}, {"smiles": "CC(C)(C)c1ccc(S(=O)(=O)Nc2cc(F)ccc2C(=O)NC23CC(C(F)(F)F)(C2)C3)cc1", "note": "[Example 3, 2-((4-(tert-butyl)phenyl)sulfonamido)-4-fluoro-N-(3-(trifluoromethyl)bicyclo[1.1.1]pentan-1-yl)benzamide]", "values": [{"measurement": "EC50", "setting": "Homo sapiens, 0.05 h", "result": 0.785, "unit": "µM"}]}, {"smiles": "CC(C)(C)c1ccc(S(=O)(=O)Nc2cc(S(C)(=O)=O)ccc2C(=O)NC23CC(C(F)(F)F)(C2)C3)cc1", "note": "[Example 16, 2-((4-(tert-butyl)phenyl)sulfonamido)-4-(methylsulfonyl)-N-(3-(trifluoromethyl)bicyclo[1.1.1]pentan-1-yl)benzamide]", "values": [{"measurement": "EC50", "setting": "Homo sapiens, 0.05 h", "result": 5.55, "unit": "µM"}]}, {"smiles": "CC(C)S(=O)(=O)Nc1ccc(C(F)(F)F)cc1C(=O)NC12CC(Cl)(C1)C2", "note": "[Example 70, N-(3-chlorobicyclo[1.1.1]pentan-1-yl)-2-((1-methylethyl)sulfonamido)-5-(trifluoromethyl)benzamide]", "values": [{"measurement": "EC50", "setting": "Homo sapiens, 0.05 h", "result": 0.591, "unit": "µM"}]}, {"smiles": "N#CC1(S(=O)(=O)Nc2ccc(C(F)(F)F)cc2C(=O)NC23CC(C(F)(F)F)(C2)C3)CC1", "note": "[Example 108, 2-((1-cyanocyclopropane)-1-sulfonamido)-5-(trifluoromethyl)-N-(3-(trifluoromethyl)bicyclo[1.1.1]pentan-1-yl)benzamide]", "values": [{"measurement": "EC50", "result": 8.44, "unit": "µM"}]}, {"smiles": "CS(=O)(=O)Nc1c(F)cccc1C(=O)NC12CC(C(F)(F)F)(C1)C2", "note": "[Example 145, 3-fluoro-2-(methylsulfonamido)-N-(3-(trifluoromethyl)bicyclo[1.1.1]pentan-1-yl)benzamide]", "values": [{"measurement": "EC50", "result": "≥ 100", "unit": "µM"}]}, {"smiles": "CC(C)(C)S(=O)(=O)Nc1ccc(Cl)cc1C(=O)NC12CC(c3ccccc3)(C1)C2", "note": "[Example 83, 5-chloro-2-((1,1-dimethylethyl)sulfonamido)-N-(3-phenylbicyclo[1.1.1]pentan-1-yl)benzamide]", "values": [{"measurement": "EC50", "setting": "Homo sapiens, 0.05 h", "result": 5.43, "unit": "µM"}]}, {"smiles": "CS(=O)(=O)c1ccc(S(=O)(=O)Nc2cc(C(F)(F)F)ccc2C(=O)NC23CC(C#N)(C2)C3)cc1", "note": "[Example 18, N-(3-cyanobicyclo[1.1.1]pentan-1-yl)-2-((4-(methylsulfonyl)phenyl)sulfonamido)-4-(trifluoromethyl)benzamide]", "values": [{"measurement": "EC50", "setting": "Homo sapiens, 0.05 h", "result": 114, "unit": "µM"}]}, {"smiles": "CS(=O)(=O)Nc1ccc(C#N)cc1C(=O)NC12CCC(C(F)(F)F)(CC1)CC2", "note": "[Example 229, 5-cyano-2-(methylsulfonamido)-N-(4-(trifluoromethyl)bicyclo[2.2.2]octan-1-yl)benzamide]", "values": [{"measurement": "EC50", "setting": "Homo sapiens, 0.05 h", "result": 4.42, "unit": "µM"}]}, {"smiles": "CS(=O)(=O)c1ccc(S(=O)(=O)Nc2ccc(Cl)cc2C(=O)NC23CC(c4ccccc4)(C2)C3)cc1", "note": "[Example 91, 5-chloro-2-((4-(methylsulfonyl)phenyl)sulfonamido)-N-(3-phenylbicyclo[1.1.1]pentan-1-yl)benzamide]", "values": [{"measurement": "EC50", "setting": "Homo sapiens, 0.05 h", "result": 2.97, "unit": "µM"}]}]}
